Measurements: patent US20170066801A1, “ALPHA3BETA HYDROGEN BOND SURROGATE MACROCYCLES AS MODULATORS OF RAS” (NEW YORK UNIVERSITY, priority 2014, published 2017)
Non-standard residues stand in square brackets, D forms with d. Residues, ends and D or L forms follow the SMILES beside them. β3hI = CC[C@H](C)[C@H](N)CC(=O)O; β3hE = N[C@@H](CCC(=O)O)CC(=O)O; β3hA = C[C@H](N)CC(=O)O

B1: α3β-HBSSOS-Flu (peptide)
peptide: FEGIYRLELLKAEEANK
modifications: not fully specified; printed as ZFEG*iYRLeLLKaEEANK(Flu)-NH2: Z = N-terminal 5-hexenoic acid residue; G* (position 3) = bridged allylglycine residue (hydrogen bond surrogate macrocycle between Z and G3); lowercase i (position 4), e (position 8), a (position 12) = β3-residues; K17 carries fluorescein (Flu); C-terminal amide

Key:
HRas^(1-166) = target: T1, HRas^(1-166) (Homo sapiens, UniProt P01112); test: In vitro pulldown binding assay with 6×His-tagged HRas 1-166 and fluorescein-tagged SOS peptides
T1 construct: 6×His-tagged HRas WT 1-166; made in house
Description: Recombinantly purified 6×His-tagged HRas WT 1-166 was incubated with Ni-NTA sepharose beads, generating recombinant Ras on solid support. FITC labeled HBS peptides were incubated in the presence of recombinant HRas-6×His/Ni-NTA Sepharose complex at 4° C. for 1 hour. Beads complexes were pelleted and washed 5× with protein buffer (20 mM Tris-HCl pH 7.6, 50 mM NaCl, 4 mM EDTA, 10 mM MgCl2), resuspended in reducing buffer (126 mM Tris-HCL pH 6.8, 20% glycerol, 4% SDS, 0.02% bromophenol blue, 2.5% β-mercaptoethanol), boiled for 10 minutes at 95° C., and subjected to SDS-PAGE with an acrylamide percentage of 20% to allow for sufficient resolution of the HBS helices. SDS-PAGE gels were imaged using an ImageQuant™ LAS 4000 biomolecular imager (GE Healthcare, Piscataway, N.J., USA). Quantification of fluorescence by FITC-HBS helices in gel was determined by manufacturer provided ImageQuant™ TL software. Raw values were normalized to total input and plotted on a semilog graph with GraphPad Prism version 6.00 for OSX (GraphPad Software, La Jolla Calif. USA, www.graphpad.com).
The binding affinity of the designed compounds for Ras was determined using in vitro pulldown assays with recombinantly purified 6×His-tagged HRas^(1-166) and fluorescein-tagged SOS peptides (FIGS. 8 and 9, and Table 2). […] Although, the exact binding mode of the peptides and the conformational state of Ras is not known, the enhanced affinity of the α3β-HBSSOS compound likely reflects a combination of both the higher conformational stability of the HBS α3β construct and the exact Ras conformation it can access. […] Because, the SOS analogs can bind nucleotide-free and bound Ras, we hypothesize that the compounds are accessing an intermediate switch conformation.

wild type HRas = target: T2, wild type HRas (Homo sapiens, UniProt P01112); test: RBD-pulldown of GTP-loaded Ras in MIA PaCa-2 cells; format: cell-based; conditions: 48 hours
T2 construct: levels of GTP-loaded endogenous HRas, KRas, and NRas proteins; endogenous in cells; host or cells: MIA PaCa-2
Description: (§1) To determine the effect of α3β-HBSSOS on Sos-mediated Ras activation in cells we treated MIA PaCa-2 cells, which harbor oncogenic KRas, with α3β-HBSSOS, control peptides, or vehicle control for 48 hours. Utilizing the RBD-pulldown assay we determined the levels of GTP-loaded endogenous HRas, KRas, and NRas proteins. As expected, MIA PaCa-2 cells display GTP-loading of all isoforms at steady state when treated with the vehicle control (FIGS. 11A-B).

wild type NRas = target: T3, wild type NRas (Homo sapiens, UniProt P01111); test: RBD-pulldown of GTP-loaded Ras in MIA PaCa-2 cells; format: cell-based; conditions: 48 hours
T3 construct: levels of GTP-loaded endogenous HRas, KRas, and NRas proteins; endogenous in cells; host or cells: MIA PaCa-2
T3 sequence (P01111 whole entry): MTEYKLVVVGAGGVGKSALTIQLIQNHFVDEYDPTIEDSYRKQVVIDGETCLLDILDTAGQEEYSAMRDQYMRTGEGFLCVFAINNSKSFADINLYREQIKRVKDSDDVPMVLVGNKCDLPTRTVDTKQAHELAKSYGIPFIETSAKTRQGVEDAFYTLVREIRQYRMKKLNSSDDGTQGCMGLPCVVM
Description: as §1

[1] = system: panel of six human cancer cell lines; test: Growth and viability of a panel of six human cancer cell lines; format: cell-based; conditions: single administration of 5 μM, six days
Description: Various indicated cell lines were plated at low density (˜500-1000 cells per well) in a 96-well format. 12 hours post-plating, media was supplemented with either PBS vehicle, or indicated dosage, and cells were allowed to grow for ˜5.5 days. Cells were subsequently fixed for 1 hour with a 3.7% formaldehyde solution in PBS, and stained with Syto-60 nucleic acid stain (MANUFACTURER) in solution (1:2000 Syto-60, 0.5% Triton X-100, 100 ug/mL RNAse-A, in PBS). Syto-60 stained cells were subjected to quantitative imaging in 96-well plates (Odyssey® Imager, LI-COR Biosciences; excitation: 652; emission: 678) with a 3.0 mm z-axis offset to the scan-head to get the cellular nuclei in the optimal focal plane for quantification. Absolute fluorescence intensity was normalized to the vehicle control for each respective cell line at each dose. Normalized values were visualized on a semilog plot, and data was subjected to non-linear sigmoidal dose-response to determine half-maximal effective concentration (EC50) using GraphPad Prism version 6.00 for OSX, (GraphPad Software, La Jolla Calif. USA, www.graphpad.com).
To investigate the functional consequence of inhibiting Ras activation in the context of oncogenic mutations, we examined the effect of α3β-HBSSOS on the growth and viability of cancer cells of different origins. We selected a panel of six human cancer cell lines derived from the pancreas, colon, and bladder, which harbor a variety of oncogenic proteins including mutant KRas (Table 3).
α3β-HBSSOS reduces cell viability in a dose dependent manner, with the effect spanning over four orders of magnitude. We divided the cell lines into two groups with respect to EC50 values (Table 3). […] We hypothesized that differential cellular uptake may account for the different potency of the peptides between the oncogenic and wild type RTK-Ras cell lines.

[2] = target: 6×His-tagged HRas WT 1-166 (UniProt P01112); test: in vitro pull-down: fluorescein-tagged peptide on 6×His-HRas 1-166 / Ni-NTA beads, in-gel fluorescence

fold greater affinity than α-HBSSOS [2] [fold]	Molecule	fold weaker affinity than constrained counterpart α3β-HBSSOS (HRas^(1-166)) [fold]	GTP-loading of wild type HRas (wild type HRas)	GTP-loading of wild type NRas (wild type NRas)	effect on cell growth relative to vehicle control [1]
	CC[C@H](C)[C@@H](CC(=O)N[C@@H](Cc1ccc(O)cc1)C(=O)N[C@@H](CCCNC(=N)N)C(=O)N[C@@H](CC(C)C)C(=O)N[C@@H](CCC(=O)O)CC(=O)N[C@@H](CC(C)C)C(=O)N[C@@H](CC(C)C)C(=O)N[C@@H](CCCCN)C(=O)N[C@@H](C)CC(=O)N[C@@H](CCC(=O)O)C(=O)N[C@@H](CCC(=O)O)C(=O)N[C@@H](C)C(=O)N[C@@H](CC(N)=O)C(N)=O)NC(=O)CNC(=O)[C@H](CCC(=O)O)NC(=O)[C@H](Cc1ccccc1)NC(C)=O [α3β-UNCSOS, Ac-FEGiYRLeLLKaEEAN-NH2] (Ac-FEG[β3hI]YRL[β3hE]LLK[β3hA]EEAN-NH2)	~136	not	not	no effect on cell growth
	CC[C@H](C)[C@H](NC(=O)CN1C/C=C\CCC(=O)N[C@@H](Cc2ccccc2)C(=O)N[C@@H](CCC(=O)O)C1=O)C(=O)N[C@@H](Cc1ccc(O)cc1)C(=O)N[C@@H](CCCNC(=N)N)C(=O)N[C@@H](CC(C)C)C(=O)N[C@@H](CCC(=O)O)C(=O)N[C@@H](CC(C)C)C(=O)N[C@@H](CC(C)C)C(=O)N[C@@H](CCCCN)C(=O)N[C@@H](C)C(=O)N[C@@H](CCC(=O)O)C(=O)N[C@@H](CCC(=O)O)C(=O)N[C@@H](C)C(=O)N[C@@H](CC(N)=O)C(N)=O [α-HBSSOS, reference compound]				no effect on cell growth
50	B1				
